Results: US12102631B2, “Quinolylnitrones for the treatment and prevention of a cerebral stroke or ischaemia” (ISQUAEMIA BIOTECH, S.L., priority 2018, dated 2024)

Columns and labels:
[1] = test system: primary neuronal cultures from rat cerebral cortex; assay: Neuroprotection (MTT cell viability) in primary neuronal cultures exposed to oxygen-glucose deprivation (OGD); assay type: cell-based; settings: 24 h recovery after 4 h OGD; for neuronal viability compared with R24 h (in words): concentrations as stated or in FIG. 4
Experimental: Primary neuronal cultures. Primary neuronal cultures from rat cerebral cortex were prepared as previously described.^54 All procedures associated with animal experiments were approved by the Ethics Committee of the Hospital Ramón y Cajal, Madrid (Spain). Cell suspensions from cerebral cortex were prepared from 16- to 17-day-old Sprague-Dawley rat embryos. Living cells in cell suspension were counted by trypan blue exclusion method. Cells were seeded on plastic multidishes precoated with 0.05 mg/mL poly-D-lysine at a density of 2.5×10^5 cells/cm^2 and were kept at 37° C. in a 6.5% CO2 atmosphere in high glucose Dulbecco's medium supplemented with 15% heat-inactivated (56° C. for 30 min) foetal calf serum. After 24 h, cultured cells were […] to induce experimental ischemia.^23 Cultured cells were washed and placed in glucose-free Dulbecco's medium (bubbled with 95% N2/5% CO2 for 30 min), and maintained in a humidified hypoxia chamber equipped with an oxygen and carbon dioxide control unit (Biospherix) at 6.5% CO2 and <0.1% O2 in N2 at 37° C. Cells were exposed to OGD for a period of 4 h (OGD 4 h). At the end of the OGD period, culture medium was replaced with oxygenated serum-free medium, and cells were placed and maintained in the normoxic incubator for 24 h to recovery (R24 h). In the neuroprotection experiments, the compounds were added at the onset of recovery period. Control cultures in Dulbecco's medium containing glucose were kept in the normoxic incubator for the same period of time as the OGD, and then medium (Dulbecco's/Ham's F12, 1:1 [vol/vol], 5 mg/mL glucose, 2 mM L-glutamine, and 1 mM sodium pyruvate, and supplemented with 100 μg/mL transferrin, 100 μM putrescine, 20 nM progesterone, 30 nM sodium selenite and 5 μg/mL insulin). Here, 6-7 day old cultured neurons were used in the experiments, and contained 90% β-III-tubulin-positive mature neurons, as described previously.^55
Exposure of cell cultures to oxygen-glucose deprivation and treatments. Primary neuronal cultures were exposed to […]. Control experiments included the same amounts of vehicle (final concentration<0.5% ethanol). Nitrone 2 was used as reference compound for neuroprotection. The experimental procedures were blindly performed, assigning a random order to each assayed nitrone. Nitrones were analyzed independently four-eight times with different batch of cultures and each experiment was run in quadruplicate.
Cell viability assay. Cell viability was evaluated by quantification of living, metabolically active cells, as determined by a colorimetric assay using the photometric reduction of 3-(4,5-dimethylthiazol-2-yl)-2,5-diphenyl tetrazolium bromide (MTT) (Roche) to a blue formazan product. The assay of living, metabolically active cells was performed by incubating with 0.2 mg/mL MTT in the culture medium for 1.5 h in an incubator at 37° C. in a 6.5% CO2 atm. After the incubation period, cells were lysed with an equal volume of 10 mM HCl and 10% SDS overnight. Values were quantified by absorbance (test 595 nm, reference 690 nm). Decreased MTT activity denotes impairment of mitochondrial function and is considered to be an index of cell damage. Primary neuronal cultures were collected at times indicated for MTT determination.
Neuroprotection of compounds was evaluated by a cell viability assay. The neuroprotective effect of the compounds 5-32 was evaluated on primary neuronal cultures from cerebral cortex subjected to oxygen-glucose deprivation (OGD) to induce experimental ischemia. Afterwards, cultured neurons were placed and kept in normoxic and normoglycemic conditions to recovery. […]

[2] = Interaction with the stable radical DPPH; assay type: biochemical; settings: tested at 100 μM; reducing activity
Experimental: Interaction of the nitrone with the Stable Radical 1,1-diphenyl-picrylhydrazyl (DPPH) To a solution of DPPH in absolute ethanol the appropriate volume of the compounds (0.1 mM final concentrations) dissolved in DMSO was added. The absorbance was recorded at 517 nm after 20 and 60 min at room temperature (Table 1).
3.1. Antioxidant activity of QNs using radical DPPH. […] This purple colour generally disappears in the presence of an antioxidant due to the reduction of the DPPH radical by single electron transfer (SET) from the antioxidant converted it to colourless/bleached product. […] In this assay, we measured the initial absorbance of DPPH and the absorbance once the potential antioxidant was added. The antioxidant activity was expressed as the percentage of reducing activity.

[3] = Hydroxyl radical scavenging (competition with DMSO); assay type: biochemical; settings: tested at 100 μM
Experimental: Hydroxyl Radicals Scavenging Activity.^32 The hydroxyl radicals were produced by the Fe^3+/ascorbic acid system. EDTA (0.1 mM), Fe^3+ (167 μM), DMSO (33 mM) in phosphate buffer (50 mM, pH 7.4), the tested compounds (0.1 mM) and ascorbic acid (10 mM) were mixed in test tubes. The solutions were incubated at 37° C. for 30 min. The reaction was stopped by trichloroacetic acid (17% w/v) (Table 1) and the % scavenging activity of the tested compounds for hydroxyl radicals was given.
3.2. Competition of QNs with DMSO for hydroxyl radicals. Among the ROS, the hydroxyl (·OH) free radical is possibly the most toxic, as it easily reacts with biological important molecules such as DNA, lipids or carbohydrates. Polyunsaturated fatty acids are found in high concentrations in the CNS, and are particularly vulnerable to free radicals attack. Thus, we tried to test the ability of our compound to scavenge hydroxyl radicals. […] Antioxidants with lipophilic character are needed to act as radical scavengers or as chain-breaking antioxidants in biological membranes.

[4] = Superoxide radical scavenging (hypoxanthine/xanthine oxidase system); assay type: biochemical; settings: tested at 100 μM (0.1 mM)
From the text: 3.7. Superoxide radical scavenging activity. Superoxide anion radical (O2⋅−) is less toxic than hydroxyl radical, but still one of the most known harmful toxic ROS. In physiological conditions, superoxide dismutase catalyzes its conversion to H2O2, which is the precursor for the formation of hydroxyl radicals in the presence of iron ions.43 Superoxide anion radicals O2⋅− and H2O2 are ROS produced in vivo through a one-electron reduction process of O2. The evaluation of superoxide anion radical scavenging activity can be determined using assays involving non-enzymatic or enzymatic production of superoxide anions. In this assay, superoxide anion radicals were generated by a hypoxanthine and xanthine oxidase reaction system, and the O2⋅− scavenging activity (%) has been measured spectrophotometrically.

[5] = Rattus norvegicus, R24 h = 0%, control = 100%

| SMILES | neuronal viability compared with R24 h (in words) [1] | viability at 10 µM [1, 5] [%] | viability at 100 µM [1, 5] [%] | viability at 250 µM [1, 5] [%] | DPPH (%) [2] | *OH (%) [3] [%] | O2*− (%) [4] | viability at 500 µM ([1]; Rattus norvegicus, 500 μM, R24 h = 0%, control = 100%) [%] | viability at 1 µM [1, 5] [%] | viability at 0.3 µM [1, 5] [%] |
| --- | --- | --- | --- | --- | --- | --- | --- | --- | --- | --- |
| COc1ccc2nc(Cl)c(/C=[N+](\[O-])C(C)(C)C)cc2c1 [Compound 23, (Z)—N-tert-Butyl-1-(2-chloro-6-methoxyquinolin-3-yl)methanimine oxide] | significantly increased neuronal viability | 52 ± 1.75 | 77.1 ± 2.24 | 65.9 ± 2.87 | 4% | 100 | 5% |  |  |  |
| CC(C)(C)/[N+]([O-])=C/c1ccc(S(=O)(=O)O)cc1S(=O)(=O)O [Compound 2, sodium (Z)-4-((tert-butyloxidoazanylidene)methyl)benzene-1,3-disulfonate, reference compound] | only produced a significant neuroprotective effect at 250 μM |  | 42.8 ± 2.31 | 52.9 ± 2.52 | no | 94 | no activity and no | 46.5 ± 1.1 |  |  |
| COc1ccc2nc(Cl)c(C=O)cc2c1 [Compound 32, 2-chloro-6-methoxyquinoline-3-carbaldehyde, reference compound] | nor carbaldehyde 32, the precursor of potent QN 23, showed neuroprotective activity | < 0 | < 0 |  | 1% | 89 | 23% |  | < 0 |  |
| COc1ccc2nc(Cl)c(/C=[N+](\[O-])Cc3ccccc3)cc2c1 [Compound 24, (Z)—N-Benzyl-1-(2-chloro-6-methoxyquinolin-3-yl)methanimine oxide] |  | 29.7 ± 1.38 | 38.9 ± 1.31 |  | 3% | 65 | 12.5% |  | 31.3 ± 1.38 | < 0 |
| CC(C)(C)/[N+]([O-])=C/c1cc2ccccc2[nH]c1=O [Compound 19, (Z)—N-tert-Butyl-1-(2-oxo-1,2-dihydroquinolin-3-yl)methanimine oxide] | significantly increased neuronal viability |  | 48.8 ± 2.29 | 55 ± 1.89 | no | 99 | 23% |  |  |  |
| COc1ccc2nc(Cl)c(/C=[N+](/C)[O-])cc2c1 [Compound 22, (Z)-1-(2-Chloro-6-methoxyquinolin-3-yl)-N-methylmethanimine oxide] |  | < 0 | < 0 | < 0 | no | 100 | 29% |  | < 0 | < 0 |
| CC(C)(C)/[N+]([O-])=C/c1cc2ccccc2nc1Cl [Compound 18, (Z)—N-t-Butyl-1-(2-chloroquinolin-3-yl)methanimine oxide] |  | 29 ± 3.83 | < 0 |  | 7% | 97 | 16% |  | 9.76 ± 0.84 |  |
